The subject of this assay is B6C3F1 mice, B16 melanoma ip, median survival T/C. As to the kind of experiment: NCI In Vivo Anticancer Drug Screen. Data for tumor model B16 Melanoma (intraperitoneal) in B6C3F1 mice. Conditions: endpoint: median survival time, higher = longer survival. Summed up: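 Antitumor effect was judged in mice with transplanted tumors by dividing the treated group's survival measure by that of vehicle controls.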

Where [1] appears, read: dose: 25.0 mg/kg/injection, schedule: Q01DX009 (ip), vehicle: saline.
Where [2] appears, read: dose: 50.0 mg/kg/injection, schedule: Q01DX009 (ip), vehicle: saline.
Setting [3] is: dose: 100.0 mg/kg/injection, schedule: Q01DX009 (ip), vehicle: saline.
The mark [4] stands for this setting: dose: 200.0 mg/kg/injection, schedule: Q01DX009 (ip), vehicle: saline.
Setting [5] is: dose: 12.5 mg/kg/injection, schedule: Q01DX009 (ip), vehicle: saline with Tween-80.
Setting [6] is: dose: 25.0 mg/kg/injection, schedule: Q01DX009 (ip), vehicle: saline with Tween-80.
The mark [7] stands for this setting: dose: 50.0 mg/kg/injection, schedule: Q01DX009 (ip), vehicle: saline with Tween-80.
Where [8] appears, read: dose: 100.0 mg/kg/injection, schedule: Q01DX009 (ip), vehicle: saline with Tween-80.
Setting [9] is: dose: 200.0 mg/kg/injection, schedule: Q01DX009 (ip), vehicle: saline with Tween-80.
[10] abbreviates: dose: 3.12 mg/kg/injection, schedule: Q01DX009 (ip), vehicle: saline with Tween-80.
[11] abbreviates: dose: 6.25 mg/kg/injection, schedule: Q01DX009 (ip), vehicle: saline with Tween-80.
Where [12] appears, read: dose: 12.5 mg/kg/injection, schedule: Q01DX009 (ip), vehicle: saline.
Where [13] appears, read: dose: 400.0 mg/kg/injection, schedule: Q01DX009 (ip), vehicle: saline with Tween-80.
Where [14] appears, read: dose: 400.0 mg/kg/injection, schedule: Q01DX009 (ip), vehicle: saline.

Structures are written as SMILES. Several values for one entry are separate records, joined by “and”; a condition that tells them apart may be missing. Identical values can stand only once. Toxic doses and inconclusive results are not listed.

For the compound `CN(CN1C(=O)CCC1=O)CN1C(=O)CCC1=O`, the T/C is, setting by setting: under setting [1], 98 % of control; under setting [2], 101 % of control; under setting [3], 105 % of control; under setting [4], 115 % of control.

As for `COc1ccc(O)cc1`, the T/C is 112 % of control under setting [5]; 98 % of control (dose: 18.0 mg/kg/injection, schedule: Q01DX009 (ip), vehicle: saline with Tween-80); 101 % of control under setting [6]; 106 % of control (dose: 30.0 mg/kg/injection, schedule: Q01DX009 (ip), vehicle: saline with Tween-80); 102 % of control under setting [7]; 106 % of control (dose: 89.0 mg/kg/injection, schedule: Q01DX009 (ip), vehicle: saline with Tween-80). In addition, the T/C was 104 % of control under setting [8]; 101 % of control (dose: 189.0 mg/kg/injection, schedule: Q01DX009 (ip), vehicle: saline with Tween-80); 105 % of control under setting [9].

For the compound `BrCC[Se]c1ccccc1`, the T/C under setting [10] is 113 % of control and 104 % of control; the T/C under setting [11] was 100 % of control; the T/C under setting [5] was 119 % of control and 103 % of control; the T/C under setting [6] is 113 % of control and 100 % of control; the T/C under setting [7] is 95 % of control and 103 % of control.

Consider `COc1cccc2c1C(=O)c1c(O)c3c(c(O)c1C2=O)C[C@@](O)(C(C)=O)C[C@@H]3OC1CC(NC(=O)C(N)CC(C)C)C(O)C(C)O1` (some centres undefined), for which the T/C is, setting by setting: (dose: 6.25 mg/kg/injection, schedule: Q01DX001 (ip), vehicle: saline) 179 % of control; (dose: 12.5 mg/kg/injection, schedule: Q01DX001 (ip), vehicle: saline) 204 % of control.

Regarding `C=C1C(=O)OCC1C(=O)O` (centres undefined), the T/C is 102 % of control and 103 % of control (dose: 4.0 mg/kg/injection, schedule: Q01DX009 (ip), vehicle: saline); 102 % of control (dose: 8.0 mg/kg/injection, schedule: Q01DX009 (ip), vehicle: saline); 88 % of control and 93 % of control (dose: 16.0 mg/kg/injection, schedule: Q01DX009 (ip), vehicle: saline); 93 % of control (dose: 32.0 mg/kg/injection, schedule: Q01DX009 (ip), vehicle: saline).

For the compound `CCC/C=C/C=C/C(=O)OC1/C(=C/C(=O)OC)CC2CC(C(C)O)OC(=O)CC(O)CC3CC(OC(C)=O)C(C)(C)C(O)(CC4C/C(=C/C(=O)OC)CC(/C=C/C(C)(C)C1(O)O2)O4)O3` (centres undefined), the T/C (dose: 4.69 micrograms/kg/injection, schedule: Q01DX009 (ip), vehicle: saline + alcohol) is 94 % of control; the T/C (dose: 9.38 micrograms/kg/injection, schedule: Q01DX009 (ip), vehicle: saline + alcohol) is 100 % of control; the T/C (dose: 18.75 micrograms/kg/injection, schedule: Q01DX009 (ip), vehicle: saline + alcohol) was 116 % of control and 104 % of control; the T/C (dose: 37.5 micrograms/kg/injection, schedule: Q01DX009 (ip), vehicle: saline + alcohol) is 111 % of control and 96 % of control; the T/C (dose: 75.0 micrograms/kg/injection, schedule: Q01DX009 (ip), vehicle: saline + alcohol) was 99 % of control and 105 % of control.

As to `CN(C)CCNc1ccc([N+](=O)[O-])c2sc3ccccc3c(=O)c12`, the T/C under setting [11] was 113 % of control; the T/C (dose: 6.25 mg/kg/injection, schedule: Q01DX009 (ip), vehicle: saline) was 105 % of control; the T/C under setting [5] was 117 % of control and 102 % of control; the T/C under setting [12] is 101 % of control; the T/C under setting [6] is 118 % of control; the T/C under setting [1] is 103 % of control. The T/C under setting [2] was 106 % of control.

Consider `O=c1[nH]c(=O)n(C2CC(O)C(CO)O2)cc1I` (centres undefined), for which the T/C under setting [13] is 111 % of control.

For `O=C1C=CC(=O)O1` (tested in a mixture with another compound), the T/C under setting [12] was 101 % of control; the T/C (dose: 12.5 mg/kg/injection, schedule: Q04DX003 (ip), vehicle: saline) was 104 % of control; the T/C under setting [1] is 113 % of control; the T/C (dose: 25.0 mg/kg/injection, schedule: Q04DX003 (ip), vehicle: saline) is 101 % of control and 106 % of control; the T/C under setting [2] is 117 % of control; the T/C (dose: 50.0 mg/kg/injection, schedule: Q04DX003 (ip), vehicle: saline) is 108 % of control. Also, the T/C under setting [14] is 123 % of control.

In the case of `COc1ccc(/C=C/C(=O)c2cc(C(=O)O)c(OC)cc2OC)cc1OC`, the T/C by setting is: under setting [5], 100 % of control; (dose: 12.5 mg/kg/injection, schedule: Q01DX009 (ip), vehicle: suspension in saline) 106 % of control; under setting [6], 94 % of control; (dose: 25.0 mg/kg/injection, schedule: Q01DX009 (ip), vehicle: suspension in saline) 101 % of control; under setting [7], 96 % of control; (dose: 50.0 mg/kg/injection, schedule: Q01DX009 (ip), vehicle: suspension in saline) 106 % of control. Also, the T/C under setting [8] was 88 % of control; the T/C (dose: 100.0 mg/kg/injection, schedule: Q01DX009 (ip), vehicle: suspension in saline) was 96 % of control; the T/C under setting [9] was 96 % of control; the T/C (dose: 200.0 mg/kg/injection, schedule: Q01DX009 (ip), vehicle: suspension in saline) is 108 % of control; the T/C (dose: 400.0 mg/kg/injection, schedule: Q01DX009 (ip), vehicle: suspension in saline) is 98 % of control.

Consider `NC(=O)CCC(N)C(=O)O` (centres undefined), for which the T/C is, setting by setting: under setting [1], 105 % of control; under setting [2], 108 % of control; under setting [3], 103 % of control; under setting [4], 100 % of control; under setting [14], 108 % of control.

On to `C[n+]1c(-c2cccc(OCCOCCOc3cccc(-c4c5cc(N)ccc5c5ccc(N)cc5[n+]4C)c3)c2)c2cc(N)ccc2c2ccc(N)cc21`, for which the T/C (dose: 0.25 mg/kg/injection, schedule: Q01DX009 (ip), vehicle: distilled water + Tween-80) was 99 % of control; the T/C (dose: 0.5 mg/kg/injection, schedule: Q01DX009 (ip), vehicle: distilled water + Tween-80) was 107 % of control; the T/C (dose: 1.0 mg/kg/injection, schedule: Q01DX009 (ip), vehicle: distilled water + Tween-80) is 117 % of control.

`CCCC(NC(=O)OCc1ccccc1)C(=O)NC(C)C(=O)O` (centres undefined): the T/C is, setting by setting: (dose: 25.0 mg/kg/injection, schedule: Q01DX009 (ip), vehicle: Klucel (hydroxypropylcellulose) (HPC)) 101 % of control; (dose: 50.0 mg/kg/injection, schedule: Q01DX009 (ip), vehicle: Klucel (hydroxypropylcellulose) (HPC)) 104 % of control; (dose: 100.0 mg/kg/injection, schedule: Q01DX009 (ip), vehicle: Klucel (hydroxypropylcellulose) (HPC)) 102 % of control.

`CC[C@](O)(C(=O)O)c1cc2n(c(=O)c1CO)Cc1cc3ccccc3nc1-2`: the T/C was 117 % of control (dose: 0.75 mg/kg/injection, schedule: Q01DX009 (ip), vehicle: water); 154 % of control (dose: 1.5 mg/kg/injection, schedule: Q01DX009 (ip), vehicle: water); 169 % of control (dose: 3.0 mg/kg/injection, schedule: Q01DX009 (ip), vehicle: water).

`CC(Br)C(=O)c1ccc2cc(Br)c3ccccc3c2c1` (centres undefined): the T/C under setting [10] was 98 % of control, the T/C under setting [11] was 100 % of control and the T/C under setting [5] is 90 % of control.

`O=C1c2ccccc2-c2c(Br)c3ccccc3c(=O)n21`: the T/C was 90 % of control under setting [7], 101 % of control under setting [8], 95 % of control under setting [9] and 94 % of control under setting [13].

On to `CC(C)CC(NC(=O)C(F)(F)F)C(=O)O` (centres undefined), for which the T/C reads like this: under setting [1], 89 % of control; under setting [2], 91 % of control.

For `CC(=O)NC(C=O)OCC=O` (centres undefined), the T/C is 112 % of control (dose: 6.25 mg/kg/injection, schedule: Q01DX009 (ip), vehicle: water); 111 % of control and 106 % of control (dose: 12.5 mg/kg/injection, schedule: Q01DX009 (ip), vehicle: water); 109 % of control and 105 % of control (dose: 25.0 mg/kg/injection, schedule: Q01DX009 (ip), vehicle: water); 103 % of control and 106 % of control (dose: 50.0 mg/kg/injection, schedule: Q01DX009 (ip), vehicle: water); 111 % of control and 117 % of control (dose: 100.0 mg/kg/injection, schedule: Q01DX009 (ip), vehicle: water); 112 % of control (dose: 200.0 mg/kg/injection, schedule: Q01DX009 (ip), vehicle: water).

On to `CN(C=O)C(C(=O)Nc1cccc2c(OC(=O)C(N(C)C=O)(N(C)C=O)N(C)C=O)c(N=Nc3ccc(S(=O)(=O)Nc4nccs4)cc3)cc(N=Nc3ccc(S(=O)(=O)Nc4nccs4)cc3)c12)(N(C)C=O)N(C)C=O` (tested in a mixture with another compound), for which the T/C under setting [6] was 98 % of control; the T/C under setting [7] is 112 % of control; the T/C under setting [8] is 121 % of control; the T/C under setting [9] was 104 % of control; the T/C under setting [13] was 105 % of control.

Source of the values: PubChem BioAssay AID200 (DTP/NCI, 2004).
